Results published in patent publication US9345731B2, “Herbal extract as sensitivity enhancer toward insulin and antidiabetes” (PT. DEXA MEDICA, priority 2008, dated 2016).

What was measured:
3T3 Swiss Albino cells = assay: In vitro toxicity test (MTT) on cell viability; assay type: cell-based; conditions: 0.02 μM, 48 hours
Method: METHODS: 3T3 Swiss Albino cells were cultured in 96-well plates. The cells were then administered with the extract combination of Lagerstroemia speciosa and Cinnamomum burmannii in a range of dose 1-10 μg/ml, pioglitazone and glimepiride (as control) for 48 hours to study the extract toxicity towards cells. Each well was added MTT reagent and the number of living cells was counted using a spectrometer.

[1] = system: insulin resistance adipocytes 3T3 Swiss Albino cells; assay: Glucose uptake by insulin resistance adipocytes (anthrone reagent, spectrophotometer); assay type: cell-based; conditions: 5 μg/ml extract combination or 0.02 μM pioglitazone, 48 hours, from the initial 5% (untreated)
Method: FIG. 12 is the graphic of glucose measurement results obtained from insulin resistance adipocytes 3T3 Swiss Albino after administration of 5 μg/ml Lythraceae and Lauraceae family plant combination extracts or 0.02 μM pioglitazone and/or 25 nM insulin during 48 hours incubation, then incubation with 5 mg/ml glucose for 0, 2, 4, 6 hours. 3T3 Swiss Albino cells were differentiated until 3T3 Swiss Albino pre-adipocytes and 3T3 Swiss Albino adipocytes cells were obtained. Each cell type received excessive glucose for over 2 weeks. Incubated cells received such excessive glucose were used as insulin resistance model. After that, those four type cells obtained were tested for its ability to uptake glucose in media. The remaining glucose level was analyzed so that the glucose level uptaken by each 3T3 Swiss Albino cell type could be determined. To measure glucose level that was uptaken by cell, we used an experiment method which is initialized by culturing 3T3 Swiss Albino cells in 6 cm-diameter plates. […] Glucose concentration that was uptaken by cells was measured by subtracting the initial glucose concentration with the remaining glucose in media at the end of incubation time. […] The reaction result was quantified by spectrophotometer.

Structure (SMILES) | cell viability (3T3 Swiss Albino cells) | glucose level uptaken [1] [%]
CCc1ccc(CCOc2ccc(CC3SC(=O)NC3=O)cc2)nc1 (stereo not drawn) [pioglitazone] | did not show any effect | 20
CCC1=C(C)CN(C(=O)NCCc2ccc(S(=O)(=O)NC(=O)N[C@H]3CC[C@H](C)CC3)cc2)C1=O [glimepiride] | did not show any effect | –
